Test results reported in patent US20230123334A1, “AMINO LIPID COMPOUND, PREPARATION METHOD THEREFOR, AND APPLICATION THEREOF” (SHENZHEN SHENXIN BIOTECHNOLOGY CO., LTD., priority 2020, published 2023).

How the values were obtained:
Assay type in all cases: cell-based
MCF7 cells [1] = test: Transfection of MCF7 cell line, mRNA vectors; conditions: 50 ng EGFP mRNA per well
Method in brief: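 Efficiency was scored as the fraction of GFP-fluorescent cells over all Hoechst-counted cells after delivery of 50 ng EGFP mRNA per well. Cells were MCF7 grown in serum-supplemented DMEM, and Lipofectamine2000 served as reference.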

MCF7 cells [2] = test: Transfection of MCF7 cell line, DNA vectors; parameters: concentration or dose not given beside the values; conditions: plasmid DNA, GFP cells / total cells
Method in brief: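 Read-out: GFP-positive cells as % of all Hoechst-stained nuclei after 96-well transfection of MCF7 cells grown in serum-supplemented DMEM. Positive control was Lipofectamine2000, used per manufacturer's protocol.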

HEK293 cells [3] = test: Preliminary screening as DNA vectors, GFP transfection of HEK293 cells; conditions: HEK293 cells; lipid/DOPE liposome with 75 ng plasmid DNA (psin-EGFP-IRES-Puro); number of cells expressing GFP divided by total number of nuclei (Hoechst)
Method in brief: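 Lipid + DOPE liposomes (NaOAc, pH 5.6) complexed w/ 75 ng psin-EGFP-IRES-Puro, 30 min RT; added to 3-5×10^4 HEK293/well, 37° C. Hoechst 0.2 μg/mL at 20-24 h, imaged after further 20-24 h. Efficiency = GFP+ cells / total nuclei.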

[4] = tested on: embryonic stem cells (hESC2); test: Screening as mRNA vectors in embryonic stem cells; conditions: 50 ng EGFP mRNA per well
Method in brief: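 EGFP mRNA (50 ng per well) transfected into hESC2 cells grown in mTeSR1; Lipofectamine Stem served as positive control. Read-out: GFP-fluorescent cells as percentage of total cells.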

HEK293 cells [5] = test: Preliminary screening as mRNA vectors, EGFP mRNA transfection of HEK293 cells; conditions: HEK293 cells, 96-well plates, EGFP mRNA 50 ng per well; percentage of GFP fluorescent cells relative to total number of cells (Hoechst)
Method in brief: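 Each well of HEK293 cells received 50 ng of EGFP mRNA. Efficiency was expressed as percent GFP-expressing cells over Hoechst-defined total cell number.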

[6] = tested on: embryonic stem cells (hESC2); test: Screening as DNA vectors in embryonic stem cells, flow cytometry; conditions: 75 ng plasmid DNA, 48 hours after transfection, flow cytometer
Method in brief: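 hESC2 cells in mTeSR1 on matrigel transfected with 75 ng pSin-EGFP-IRES-Puro complexed with amino lipid/DOPE liposomes formed in sodium acetate pH 5.6; 37 °C, 5% CO2. After 48 h, GFP-positive cells counted by flow cytometry (≥2000 cells), efficiency also expressed relative to Lipofectamine Stem.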

Hela cells [7] = test: Transfection of Hela cell line, DNA vectors; conditions: 75 ng plasmid DNA, GFP cells / total cells
Method in brief: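 Amino lipid/DOPE liposomes in sodium acetate pH 5.6 were complexed with 75 ng psin-EGFP-IRES-Puro plasmid for 30 min at room temperature, then mixed with 3-5×10^4 Hela cells in DMEM/10% FBS at 37° C. Hoechst stain after 20-24 h, imaging after a further 20-24 h. Efficiency = GFP-positive cells / total nuclei.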

cardiomyocytes [8] = test: Screening as mRNA vectors in cardiomyocytes; conditions: 50 ng EGFP mRNA per well
Method in brief: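 Cardiomyocytes differentiated from hESC, in DMEM with 10% FBS, were transfected with 50 ng EGFP mRNA per well. The read-out was GFP-positive cells as a percentage of Hoechst-stained nuclei, with Lipofectamine Stem as positive control.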

Hela cells [9] = test: Transfection of Hela cell line, mRNA vectors; conditions: 50 ng EGFP mRNA per well
Method in brief: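 Transfection efficiency was scored as GFP-fluorescent cells over Hoechst-stained total nuclei, with Lipofectamine2000 as reference reagent. Each well of HeLa cells, grown in DMEM plus 10% FBS, received 50 ng EGFP mRNA.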

cardiomyocytes [10] = test: Screening as DNA vectors in cardiomyocytes; parameters: concentration or dose not given beside the values; conditions: method as Example 4
Method in brief: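 hESC-derived cardiomyocytes in DMEM with 10% FBS were transfected with a GFP DNA vector; Lipofectamine Stem served as positive control. Read-out: percentage of GFP-positive cells relative to total cells counted by Hoechst nuclear stain.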

Row | SMILES | Absolute mRNA transfection efficiency in MCF7 cells (MCF7 cells [1]) [%] | Absolute DNA transfection efficiency in MCF7 cells (MCF7 cells [2]) [%] | Absolute DNA transfection efficiency in HEK293 cells (HEK293 cells [3]) [%] | Absolute mRNA transfection efficiency in embryonic stem cells [4] [%] | Absolute mRNA transfection efficiency in HEK293 cells (HEK293 cells [5]) [%] | Absolute DNA transfection efficiency in embryonic stem cells [6] [%] | Absolute DNA transfection efficiency in Hela cells (Hela cells [7]) [%] | Absolute mRNA transfection efficiency in cardiomyocytes (cardiomyocytes [8]) [%] | Absolute mRNA transfection efficiency in Hela cells (Hela cells [9]) [%] | Absolute DNA transfection efficiency in cardiomyocytes (cardiomyocytes [10]) [%]
1 | CCCCCCCCCCCCSc1nc(NCCN2CCCC2)nc(SCCCCCCCCC)n1 [Compound S9S12D3] | 6.5 | 3.0 | 4.9 | 21.4 | 5.3 | 5.3 | 2.4 | 65.7 | 2.4 | 2.7
2 | CCCCCCCCCCCCSc1nc(NCCN2CCN(C)CC2)nc(SCCCCCCCCC)n1 [Compound S9S12D5] | 27.3 | 32.0 | 21.0 | 27.3 | 57.5 | 4.6 | 10.8 | 1.2 | 10.8 | 1.7
3 | CCCCCCCCCCCCSc1nc(NCCCN(C)C)nc(SCCCCCCCCC)n1 [Compound S9S12D6] | 50.4 | 34.2 | 20.2 | 9.3 | 61.6 | 10.5 | 10.9 | 9.5 | 10.9 | 3.3
4 | CCCCCCCCCCCCSc1nc(NCCCN2CCOCC2)nc(SCCCCCCCCC)n1 [Compound S9S12D8] | 12.6 | 7.7 | 30.4 | 1.7 | 13.8 | 11.1 | 15.8 | 0.9 | 15.8 | 5.8
5 | CCCCCCCCCCCCSc1nc(NCCCN2CCN(C)CC2)nc(SCCCCCCCCC)n1 [Compound S9S12D9] | 5.1 | 33.8 | 39.3 | 20.6 | 60.9 | 7.6 | 19.6 | 69.3 | 19.6 | 5.9
6 | CCCCCCCCCCCCSc1nc(NCC2CCN(C)CC2)nc(SCCCCCCCCC)n1 [Compound S9S12D10] | 40.9 | 46.0 | 17.9 | 25.4 | 82.9 | 14.0 | 8.9 | 3.8 | 8.9 | 2.9
7 | CCCCCCCCCCCCCCSc1nc(NCCN2CCCC2)nc(SCCCCCCCCC)n1 [Compound S9S14D3] | 4.4 | 1.3 | 5.1 | 19.7 | 2.3 | 1.6 | 2.4 | 72.4 | 2.5 | 0.5
8 | CCCCCCCCCCCCCCSc1nc(NCCN2CCN(C)CC2)nc(SCCCCCCCCC)n1 [Compound S9S14D5] | 2.1 | 17.9 | 14.6 | 22.5 | 32.3 | 0.7 | 7.3 | 0.6 | 7.32 | 4.6
9 | CCCCCCCCCCCCCCSc1nc(NCCCN(C)C)nc(SCCCCCCCCC)n1 [Compound S9S14D6] | 12.2 | 44.4 | 19.2 | 1.7 | 80.0 | 2.0 | 9.6 | 8.5 | 9.6 | 10.5
10 | CCCCCCCCCCCCCCSc1nc(NCCCN2CCOCC2)nc(SCCCCCCCCC)n1 [Compound S9S14D8] | 14.8 | 6.4 | 21.0 | 0.3 | 11.6 | 0.7 | 10.8 | 1.0 | 10.8 | 6.1
